Measured values: patent publication US10004792B2, “Peptides and combination of peptides for use in immunotherapy against various cancers” (immatics biotechnologies GmbH, priority 2015, dated 2018)

Each substance was assayed on CD8+ T cells (assay: In vitro immunogenicity: T-cell priming with aAPCs loaded with peptide/MHC and anti-CD28, multimer staining). Conditions: healthy donor CD8+ T cells, three stimulation cycles, multimer readout.
Assay type: cell-based, human
Text: In order to obtain information regarding the immunogenicity of the TUMAPs of the present invention, the inventors performed investigations using an in vitro T-cell priming assay based on repeated stimulations of CD8+ T cells with artificial antigen presenting cells (aAPCs) loaded with peptide/MHC complexes and anti-CD28 antibody.
In order to perform in vitro stimulations by artificial antigen presenting cells loaded with peptide-MHC complex (pMHC) and anti-CD28 antibody, the inventors first isolated CD8+ T cells from fresh HLA-A*02 leukapheresis products via positive selection using CD8 microbeads (Miltenyi Biotec, Bergisch-Gladbach, Germany) of healthy donors obtained from the University clinics Mannheim, Germany, after informed consent.
PBMCs and isolated CD8+ lymphocytes were incubated in T-cell medium (TCM) until use consisting of RPMI-Glutamax (Invitrogen, Karlsruhe, Germany) supplemented with 10% heat inactivated human AB serum (PAN-Biotech, Aidenbach, Germany), 100 U/ml Penicillin/100 μg/ml Streptomycin (Cambrex, Cologne, Germany), 1 mM sodium pyruvate (CC Pro, Oberdorla, Germany), 20 µg/ml Gentamycin (Cambrex). 2.5 ng/ml IL7 (PromoCell, Heidelberg, Germany) and 10 U/ml IL-2 (Novartis Pharma, Nurnberg, Germany) were also added to the TCM at this step.
Generation of pMHC/anti-CD28 coated beads, T-cell stimulations and readout was performed in a highly defined in vitro system using four different pMHC molecules per stimulation condition and 8 different pMHC molecules per readout condition.
The purified co-stimulatory mouse IgG2a anti human CD28 Ab 9.3 (Jung et al., 1987) was chemically biotinylated using Sulfo-N-hydroxysuccinimidobiotin as recommended by the manufacturer (Perbio, Bonn, Germany). Beads used were 5.6 μm diameter streptavidin coated polystyrene particles (Bangs Laboratories, Illinois, USA).
pMHC used for positive and negative control stimulations were A*0201/MLA-001 (peptide […] (SEQ ID NO. 303) from modified Melan-A/MART-1) and A*0201/DDX5-001 ([…] from DDX5, SEQ ID NO. 304), respectively.
800.000 beads/200 μl were coated in 96-well plates in the presence of 4×12.5 ng different biotin-pMHC, washed and 600 ng biotin anti-CD28 were added subsequently in a volume of 200 μl. Stimulations were initiated in 96-well plates by co-incubating 1×10^6 CD8+ T cells with 2×10^5 washed coated beads in 200 μI TCM supplemented with 5 ng/ml IL-12 (PromoCell) for 3 days at 37° C. Half of the medium was then exchanged by fresh TCM supplemented with 80 U/ml IL-2 and incubating was continued for 4 days at 37° C. This stimulation cycle was performed for a total of three times. For the pMHC multimer readout using 8 different pMHC molecules per condition, a two-dimensional combinatorial coding approach was used as previously described (Andersen et al., 2012) with minor modifications encompassing coupling to 5 different fluorochromes. Finally, multimeric analyses were performed by staining the cells with Live/dead near IR dye (Invitrogen, Karlsruhe, Germany), CD8-FITC antibody clone SK1 (BD, Heidelberg, Germany) and fluorescent pMHC multimers. For analysis, a BD LSRII SORP cytometer equipped with appropriate lasers and filters was used. Peptide specific cells were calculated as percentage of total CD8+ cells. Evaluation of multimeric analysis was done using the FlowJo software (Tree Star, Oreg., USA). In vitro priming of specific multimer+CD8+ lymphocytes was detected by comparing to negative control stimulations.
In the case of “292 (GMMTAILGV; listed as Homo sapiens) [compound 292]”, the “Wells (in vitro immunogenicity)” value is reported as “+ (<20% = +)”. With “297 (PFLQASPHF; listed as Homo sapiens) [compound 297]” the “Wells (in vitro immunogenicity)” value was “++ (20%-49% = ++)”.

Same assay, conditions: in vitro immunogenicity of HLA class I peptides; peptide-specific multimer staining after aAPC priming of CD8+ T cells
In the case of “158 (HYSQELSLLYL; listed as Homo sapiens) [compound 158]”, the “Wells positive [%]” value is reported as “+ (<20% = +)”. “165 (DYTTWTALL; listed as Homo sapiens) [compound 165]” was tested, and the “Wells positive [%]” value was “+ (<20% = +)”. In the case of “204 (TYELRYFQI; listed as Homo sapiens) [compound 204]”, the “Wells positive [%]” value is reported as “+ (<20% = +)”. With “159 (LYNKGFIYL; listed as Homo sapiens) [compound 159]” the “Wells positive [%]” value was “++++ (>=70% = ++++)”. “163 (DYLKGLASF; listed as Homo sapiens) [compound 163]” was tested, and the “Wells positive [%]” value was “+ (<20% = +)”. “230 (KLQNIMMLL; listed as Homo sapiens) [compound 230]” was tested, and the “Wells positive [%]” value was “++++ (>=70% = ++++)”. For “196 (LYIDRPLPYL; listed as Homo sapiens) [compound 196]”, the “Wells positive [%]” value was “++++ (>=70% = ++++)”. For “23 (SLFSDEFKV; listed as Homo sapiens) [compound 23]”, the “Wells positive [%]” value was “++++ (>=70% = ++++)”. For “18 (ILLDLTDNRL; listed as Homo sapiens) [compound 18]”, the “Wells positive [%]” value was “+ (<20% = +)”. For “5 (GIVAHIQEV; listed as Homo sapiens) [compound 5]”, the “Wells positive [%]” value was “+ (<20% = +)”. “35 (FLLPFSTVYL; listed as Homo sapiens) [compound 35]” was tested, and the “Wells positive [%]” value was “+ (<20% = +)”. With “269 (YFIDSTNLKTHF; listed as Homo sapiens) [compound 269]” the “Wells positive [%]” value was “+ (<20% = +)”. “167 (NYINRILKL; listed as Homo sapiens) [compound 167]” was tested, and the “Wells positive [%]” value was “+ (<20% = +)”.

What follows are substances tested against HLA-A*02 (Homo sapiens, UniProt P04439, D140Y/D185E/D98H/E176V/E277Q/G131W/G231S/I119V/I121R/I166T/I218V/L300P/N151K/N90K/P208A/P217A/Q86G/Q94H/R138H/R169H) (assay: MHC binding assay (UV-ligand exchange, beta2m ELISA), HLA-A*02). Conditions: peptide exchange yield, binding to HLA-A*02, UV-ligand exchange, β2m ELISA.
Text: (§1) Candidate peptides for T cell based therapies according to the present invention were further tested for their MHC binding capacity (affinity). The individual peptide-MHC complexes were produced by UV-ligand exchange, where a UV-sensitive peptide is cleaved upon UV-irradiation, and exchanged with the peptide of interest as analyzed. Only peptide candidates that can effectively bind and stabilize the peptide-receptive MHC molecules prevent dissociation of the MHC complexes. To determine the yield of the exchange reaction, an ELISA was performed based on the detection of the light chain (β2m) of stabilized MHC complexes. The assay was performed as generally described in Rodenko et al. (Rodenko et al., 2006).
(§2) 96 well MAXISorp plates (NUNC) were coated over night with 2 ug/ml streptavidin in PBS at room temperature, washed 4× and blocked for 1 h at 37° C. in 2% BSA containing blocking buffer. Refolded HLA-A*02:01/MLA-001 monomers served as standards, covering the range of 15-500 ng/ml. Peptide-MHC monomers of the UV-exchange reaction were diluted 100 fold in blocking buffer. Samples were incubated for 1h at 37° C., washed four times, incubated with 2 ug/ml HRP conjugated anti-62m for 1 h at 37° C., washed again and detected with TMB solution that is stopped with […]. Absorption was measured at 450 nm. Candidate peptides that show a high exchange yield (preferably higher than 50%, most preferred higher than 75%) are generally preferred for a generation and production of antibodies or fragments thereof, and/or T cell receptors or fragments thereof, as they show sufficient avidity to the MHC molecules and prevent dissociation of the MHC complexes.
For “84 (ALCPRIHEV; listed as Homo sapiens) [compound 84]”, the Peptide exchange was “++++ (>=75% = ++++)”. For “125 (SLADYEHFV; listed as Homo sapiens) [compound 125]”, the Peptide exchange was “++++ (>=75% = ++++)”. “153 (FISERVEVV; listed as Homo sapiens) [compound 153]” was tested, and the Peptide exchange was “++++ (>=75% = ++++)”. For “82 (FIFDEAEKL; listed as Homo sapiens) [compound 82]”, the Peptide exchange was “+ (<20% = +)”. “51 (LLFSRLCGA; listed as Homo sapiens) [compound 51]” was tested, and the Peptide exchange was “++++ (>=75% = ++++)”. “245 (SLLDLPLSL; listed as Homo sapiens) [compound 245]” was tested, and the Peptide exchange was “++++ (>=75% = ++++)”. “120 (VTPVTVSAV; listed as Homo sapiens) [compound 120]” was tested, and the Peptide exchange was “+ (<20% = +)”. For “229 (AILAHLNTV; listed as Homo sapiens) [compound 229]”, the Peptide exchange was “++++ (>=75% = ++++)”. “1 (LLYPEPWSV; listed as Homo sapiens) [compound 1]” was tested, and the Peptide exchange was “++++ (>=75% = ++++)”. With “95 (GLLGSLFFL; listed as Homo sapiens) [compound 95]” the Peptide exchange was “++++ (>=75% = ++++)”. For “16 (YTLDIPVLFGV; listed as Homo sapiens) [compound 16]”, the Peptide exchange was “++++ (>=75% = ++++)”. In the case of “92 (GLLFSLRSV; listed as Homo sapiens) [compound 92]”, the Peptide exchange is reported as “++++ (>=75% = ++++)”. “257 (GLYTDPCGV; listed as Homo sapiens) [compound 257]” was tested, and the Peptide exchange was “++++ (>=75% = ++++)”. In the case of “129 (RLQDILWFL; listed as Homo sapiens) [compound 129]”, the Peptide exchange is reported as “++++ (>=75% = ++++)”. For “100 (ALLGMIIVGV; listed as Homo sapiens) [compound 100]”, the Peptide exchange was “+ (<20% = +)”. In the case of “258 (LLSERFINV; listed as Homo sapiens) [compound 258]”, the Peptide exchange is reported as “++++ (>=75% = ++++)”.

The substances below were run on HLA-A*24 (assay: MHC binding assay (UV-ligand exchange, beta2m ELISA), HLA-A*24). Conditions: peptide exchange yield, binding to HLA-A*24, UV-ligand exchange, β2m ELISA.
Parameters: species or system human
Text: as §1, §2
With “158 (HYSQELSLLYL; listed as Homo sapiens) [compound 158]” the Peptide exchange was “++++ (>=75% = ++++)”. For “165 (DYTTWTALL; listed as Homo sapiens) [compound 165]”, the Peptide exchange was “++++ (>=75% = ++++)”. With “204 (TYELRYFQI; listed as Homo sapiens) [compound 204]” the Peptide exchange was “++++ (>=75% = ++++)”. For “159 (LYNKGFIYL; listed as Homo sapiens) [compound 159]”, the Peptide exchange was “++++ (>=75% = ++++)”. With “163 (DYLKGLASF; listed as Homo sapiens) [compound 163]” the Peptide exchange was “++++ (>=75% = ++++)”. With “167 (NYINRILKL; listed as Homo sapiens) [compound 167]” the Peptide exchange was “++++ (>=75% = ++++)”.
